Reference: ChEMBL document CHEMBL4828727, “Antibacterial and antitumoral properties of 1,2,3-triazolo fused triterpenes and their mechanism of inhibiting the proliferation of HL-60 cells” (Eur J Med Chem, 2021)
Values after ≈ are worked out from the molar mass of the structure shown. Active and inactive are the calls of the source. The calls are words filed in the database; no cut-off is given here.

Assays:
[1] = test system: Salmonella enterica subsp. enterica; assay: Antibacterial activity against Salmonella enterica subsp.enterica ATCC13076 assessed as growth inhibition after 20 hrs by broth microdilution method; assay type: functional
MV4-11 = assay: cells; assay type: functional, cell-based; settings: Homo sapiens, MV4-11, 72 h
Description: Cytotoxicity against human MV4-11cells assessed as inhibition of cell viability measured after 72 hrs by real-time IncuCyte proliferation analysis

LN-229 = assay: Antiproliferative activity against human LN-229 cells assessed as inhibition of cell viability measured after 72 hrs by colorimetric MTS viability assay; assay type: functional, cell-based; settings: LN-229, 72 h
Escherichia coli = assay: Antibacterial activity against Escherichia coli ATCC47076 assessed as growth inhibition after 20 hrs by broth microdilution method; assay type: functional
[2] = Antiproliferative activity against human HAP1 cells assessed as inhibition of cell viability measured after 72 hrs by colorimetric MTS viability assay; assay type: functional, cell-based; settings: HAP1, 72 h
HCT-116 = assay: Antiproliferative activity against human HCT-116 cells assessed as inhibition of cell viability measured after 72 hrs by colorimetric MTS viability assay; assay type: functional, cell-based; settings: HCT-116, 72 h
Staphylococcus aureus = assay: Antibacterial activity against Staphylococcus aureus ATCC65385 assessed as growth inhibition after 20 hrs by broth microdilution method; assay type: functional
Listeria innocua = assay: Antibacterial activity against Listeria innocua LMG11387 assessed as growth inhibition after 20 hrs by broth microdilution method; assay type: functional
HL-60 = assay: cells; assay type: functional, cell-based; settings: Homo sapiens, HL-60, 72 h
Description: Antiproliferative activity against human HL-60 cells assessed as inhibition of cell viability measured after 72 hrs by real-time IncuCyte proliferation analysis

K562 = assay: cells; assay type: functional, cell-based; settings: Homo sapiens, K562, 72 h
Description: Antiproliferative activity against human K562 cells assessed as inhibition of cell viability measured after 72 hrs by real-time IncuCyte proliferation analysis

Rec1 = assay: cells; assay type: functional, cell-based; settings: Homo sapiens, Rec1, 72 h
Description: Cytotoxicity against human REC1 cells assessed as inhibition of cell viability measured after 72 hrs by real-time IncuCyte proliferation analysis

Z-138 = assay: cells; assay type: functional, cell-based; settings: Homo sapiens, Z-138, 72 h
Description: Antiproliferative activity against human Z138 cells assessed as inhibition of cell viability measured after 72 hrs by real-time IncuCyte proliferation analysis

CAPAN-1 = assay: cells; assay type: functional, cell-based; settings: Homo sapiens, CAPAN-1, 72 h
Description: Antiproliferative activity against human CAPAN-1 cells assessed as inhibition of cell viability measured after 72 hrs by colorimetric MTS viability assay

NCI-H460 = assay: cells; assay type: functional, cell-based; settings: Homo sapiens, NCI-H460, 72 h
Description: Antiproliferative activity against human NCI-H460 cells assessed as inhibition of cell viability measured after 72 hrs by colorimetric MTS viability assay

Jurkat = assay: cells; assay type: functional, cell-based; settings: Homo sapiens, 72 h
Description: Cytotoxicity against human Jurkat cells assessed as inhibition of cell viability measured after 72 hrs by real-time IncuCyte proliferation analysis

[3] = Antiproliferative activity against human DND41 cells assessed as inhibition of cell viability measured after 72 hrs by real-time IncuCyte proliferation analysis; assay type: functional, cell-based; settings: DND41, 72 h

CC1(C)CC[C@]2(C(=O)O)CC[C@]3(C)C(=CC[C@@H]4[C@@]5(C)Cc6nnn(Cc7ccc8[nH]ccc8c7)c6C(C)(C)[C@@H]5CC[C@]43C)[C@@H]2C1
MIC50 [1]: 33 µg/mL (≈ 54.1 µM)
IC50 (MV4-11): 12.8 µM
IC50 (LN-229): 37.7 µM
MIC50 (Escherichia coli): 41.6 µg/mL (≈ 68.3 µM)
IC50 [2]: 3.3 µM
IC50 (HCT-116): 12 µM
MIC50 (Staphylococcus aureus): 95.5 µg/mL (≈ 157 µM)
MIC50 (Listeria innocua): 193 µg/mL (≈ 317 µM)
IC50 (HL-60): 7 µM
IC50 (K562): 86.1 µM
IC50 (Rec1): 2 µM
IC50 (Z-138): 10.3 µM
IC50 (CAPAN-1): 4.1 µM
IC50 (NCI-H460): 8.3 µM
IC50 (Jurkat): 3.7 µM
IC50 [3]: 12.1 µM

C[C@H]1[C@H](C)CC[C@]2(C(=O)O)CC[C@]3(C)C(=CC[C@@H]4[C@@]5(C)Cc6nnn(Cc7ccc8cc[nH]c8c7)c6C(C)(C)[C@@H]5CC[C@]43C)[C@H]12
MIC50 [1]: inactive
IC50 (MV4-11): 12.6 µM
IC50 (LN-229): 32.2 µM
MIC50 (Escherichia coli): inactive
IC50 [2]: 2.3 µM
IC50 (HCT-116): 11 µM
MIC50 (Staphylococcus aureus): 60.5 µg/mL (≈ 99.3 µM)
MIC50 (Listeria innocua): 74.4 µg/mL (≈ 122 µM)
IC50 (HL-60): 3.3 µM
IC50 (K562): 53.7 µM
IC50 (Rec1): 4.9 µM
IC50 (Z-138): 10.3 µM
IC50 (CAPAN-1): 2.6 µM
IC50 (NCI-H460): 7.9 µM
IC50 (Jurkat): 5.2 µM
IC50 [3]: 13.9 µM

C[C@H]1[C@H](C)CC[C@]2(C(=O)O)CC[C@]3(C)C(=CC[C@@H]4[C@@]5(C)Cc6nnn(Cc7ccc8[nH]ccc8c7)c6C(C)(C)[C@@H]5CC[C@]43C)[C@H]12
MIC50 [1]: inactive
IC50 (MV4-11): 12.9 µM
IC50 (LN-229): 33.1 µM
MIC50 (Escherichia coli): inactive
IC50 [2]: 4.3 µM
IC50 (HCT-116): 11.5 µM
MIC50 (Staphylococcus aureus): 37 µg/mL (≈ 60.7 µM)
MIC50 (Listeria innocua): 153 µg/mL (≈ 252 µM)
IC50 (HL-60): 1.5 µM
IC50 (K562): 49.3 µM
IC50 (Rec1): 1.7 µM
IC50 (Z-138): 9.4 µM
IC50 (CAPAN-1): 4.5 µM
IC50 (NCI-H460): 8.6 µM
IC50 (Jurkat): 3.2 µM
IC50 [3]: 11.5 µM

CC1(C)CC[C@]2(C(=O)O)CC[C@]3(C)C(=CC[C@@H]4[C@@]5(C)Cc6nnn(Cc7cccc8[nH]ccc78)c6C(C)(C)[C@@H]5CC[C@]43C)[C@@H]2C1
MIC50 [1]: 88.7 µg/mL (≈ 146 µM)
IC50 (MV4-11): 22.1 µM
IC50 (LN-229): 47.2 µM
MIC50 (Escherichia coli): 95.8 µg/mL (≈ 157 µM)
IC50 [2]: 9.7 µM
IC50 (HCT-116): 12.6 µM
MIC50 (Staphylococcus aureus): 180 µg/mL (≈ 296 µM)
MIC50 (Listeria innocua): 237 µg/mL (≈ 390 µM)
IC50 (HL-60): 9.7 µM
IC50 (K562): 68.2 µM
IC50 (Rec1): 2.6 µM
IC50 (Z-138): 9.9 µM
IC50 (CAPAN-1): 6.7 µM
IC50 (NCI-H460): 10.6 µM
IC50 (Jurkat): 5.3 µM
IC50 [3]: 11 µM
